Key:
[1] = method code SF-AS, from DOI: 10.1021/acs.inorgchem.5b01238, PMID: 26280387
[2] = method code SF-HPLC, from DOI: 10.1023/a:1015862319927, PMID: 2062808; conditions: pH 7.4
[3] = not given; remark: listed apart in the source
[4] = method code SF, from DOI: 10.3109/00498258709043934, PMID: 3564538
[5] = method code SF-AS, from DOI: 10.1021/jm00075a005, PMID: 8246220; conditions: pH 7.4
[6] = method code SF-GLC, from DOI: 10.1016/j.chemosphere.2004.08.061, PMID: 15519382
[7] = not given; remark: listed apart in the source
[8] = method code SF-HPLC, from DOI: 10.1248/cpb.41.694
[9] = method code SF-HPLC, from DOI: 10.1007/s00216-006-0868-5, PMID: 17082876
[10] = method code SF-AS, from DOI: 10.1021/jf60220a002
[11] = method code SF-AS, from DOI: 10.1021/jm00297a026, PMID: 5441130
[12] = method code SF-HPLC, from DOI: 10.1016/0378-5173(86)90071-2; conditions: pH 7.4
[13] = method code SF, from DOI: 10.1016/0223-5234(94)90060-4; conditions: pH 7.4
[14] = method code SF-CR+DM, from DOI: 10.1021/ja01573a017; conditions: pH 6.5
[15] = method code SF, from DOI: 10.1016/0048-3575(88)90017-x
[16] = method code SF-HPLC, from Peips, M.; Sikk, P.; Aaviksaar, A. (1986). Hydrophobic interaction in the active sites of serine proteases from thermoactinomycetes. Org. React., 23(3)261-271.; conditions: pH 2.2
[17] = method code SF-AS, from DOI: 10.1016/0006-2952(80)90068-4, PMID: 6775639
[18] = method code SF-AS, from DOI: 10.1021/es00012a023, PMID: 22148214
[19] = not given; remark: listed apart in the source
[20] = not given; remark: listed apart in the source
[21] = method code SF, from DOI: 10.1080/09553008714551831, PMID: 3497891; conditions: pH 7.4
[22] = method code SF-AS, from DOI: 10.1002/jps.2600611027, PMID: 5072421
[23] = method code SF-HPLC, from DOI: 10.1016/0378-5173(87)90096-2; conditions: pH 8.0
[24] = method code SF-AS, from DOI: 10.1016/0006-2952(93)90433-w, PMID: 8494536; conditions: pH 7.4
[25] = method code SF-NMR, from DOI: 10.1021/jm00157a023, PMID: 3806574
[26] = method code SF-AS, from DOI: 10.1016/s0021-9673(01)91572-9, PMID: 2376602; conditions: pH 7.0
[27] = method code SF, from DOI: 10.1016/s0378-5173(98)00231-2
[28] = method code SF, from DOI: 10.1021/bk-1995-0606.ch004

`CCC(C)C(NC(=O)C(=O)OCC1OC(n2cc(C)c(=O)[nH]c2=O)CC1N=[N+]=[N-])C(=O)O` (centres undefined) gave a logP of 1.15.
For `CSC(=S)C=C(O)c1cccc(O)c1`, the logP [1] was 1.71.
Work on `O=C(OC[C@H]1O[C@@H](n2cc(I)c(=O)[nH]c2=O)C[C@@H]1O)c1ccccc1` yielded a logD [2] of 1.4.
Work on `CCCCCCC1(c2ccncc2)CCC(=O)NC1=O` (centres undefined) yielded a logP [3] of 2.85.
With `CCSC(=S)C=C(O)c1cccc(O)c1` the logP [1] was 1.73.
`CCOC(=O)C(C(=O)CC)=C1SC=CS1` showed a logP [4] of 2.9.
`O=C1CC2(CCCC2)C(=O)N1OCc1ccccc1` showed a logD [5] of 2.3.
Molecule `Cn1c(Cl)c(Cl)c(Br)c1-c1c(Br)c(Br)c(Cl)n1C` has a logP [6] of 6.5.
Molecule `CC(C)(C)NCC(O)COc1cccc2c1C[C@H](O)[C@H](O)C2` (some centres undefined) has a logP [7] of 1.27.
Work on `CSc1ccc(COC(=O)N(C)C)cc1` yielded a logP [8] of 2.86.
Molecule `CC(=O)CC(=O)Nc1ccccc1` has a logP [9] of 1.04.
`CCOP(=O)(NC)O/N=C(/C#N)c1ccc(Cl)cc1` (centres undefined) showed a logP [10] of 2.5.
Molecule `O=C1CC2(CCCC2)C(=O)N1OCc1ccc(Cl)cc1` has a logD [5] of 2.53.
With `CCC(O)Cn1cnc2c(N)ncnc21` (centres undefined) the logP [11] was 0.14.
`CC(=O)OCOc1ccccc1C(N)=O` showed a logD [12] of 0.52.
Work on `CON1C(=O)CC2(CCCC2)C1=O` yielded a logD [5] of 1.15.
`CC(C=CC1=C(C)CCCC1(C)C)=CC=CC(C)=CC(=O)OCC1OC(n2ccc(N)nc2=O)CS1` (centres undefined) gave a logD [13] of 1.24.
Work on `Cc1ccc(NC(=O)c2ccccc2)c(O)c1` yielded a logD [14] of 3.08.
`CC(=O)OCN1C(=O)c2ccccc2C1=O` showed a logP [15] of 1.15.
`CCCCC(NC(C)=O)C(=O)OC` (racemic) gave a logD [16] of 0.79.
In the case of `CC1=C(C)C(=O)C(C)=C(C)C1=O`, the logP [17] is reported as 2.12.
In the case of `CC(C)OC(=O)CS(=O)c1ccc([N+](=O)[O-])cc1` (centres undefined), the logP [18] is reported as 1.64.
`CNCc1ccc(C)cc1` gave a logP [19] of 1.96.
`CSC(=S)C=C(O)c1ccc(O)cc1` gave a logP [1] of 1.9.
In the case of `Cn1c(Br)c(Br)c(Br)c1-c1c(Br)c(Br)c(Br)n1C`, the logP [6] is reported as 6.7.
`Cc1cc2ccccc2cc1C` gave a logP [20] of 4.4.
Work on `CN(C)C(=O)OCc1ccc(C(N)=O)cc1` yielded a logP [8] of 0.77.
`COC(=O)C(=Cc1cnc(S(C)(=O)=O)n1C)C(=O)OC` gave a logD [21] of 0.49.
In the case of `CCCCCCCc1ccncc1`, the logP [22] is reported as 5.
`Cc1ccc(NC(=O)c2ccco2)c(O)c1` gave a logD [14] of 2.84.
With `CC(=O)OCN1C(=O)C(C)=C(C)C1=O` the logP [15] was 0.65.
`CC1=CC(=O)C(C)=C(C)C1=O` showed a logP [17] of 1.47.
`NC(=O)CCCc1ccncc1` gave a logD [23] of 0.06.
Molecule `CS(=O)(=O)c1cccc2ccccc12` has a logD [24] of 1.74.
`Oc1ccc(Cl)c2ccccc12` gave a logD [14] of 4.1.
With `CC(=O)OCC1OC(n2ccc(N)nc2=O)CS1` (centres undefined) the logD [13] was 0.51.
Molecule `COC(=O)C(=Cc1cnc(S(C)=O)n1C)C(=O)OC` (centres undefined) has a logD [21] of -0.43.
`CCCCCC(NC(C)=O)C(=O)OC` (centres undefined) gave a logD [16] of 1.28.
For `CC(C=CC1=C(C)CCCC1(C)C)=CC=CC(C)=CC(=O)Nc1ccn(C2CSC(CO)O2)c(=O)n1` (centres undefined), the logD [13] was 1.23.
With `CCCCCc1ccncc1` the logP [22] was 3.75.
Work on `NC(=O)CCCc1cccnc1` yielded a logD [23] of 0.07.
For `NC(=O)CCCCc1ccccn1`, the logD [23] was 0.4.
In the case of `CCC(=O)OCC1OC(n2cc(I)c(=O)[nH]c2=O)CC1O` (centres undefined), the logD [2] is reported as 0.68.
`CN(C)C(=O)OCc1cccc([N+](=O)[O-])c1` gave a logP [8] of 1.98.
Molecule `O=S1(=O)OC(c2cc(Br)c(O)c(Br)c2)(c2cc(Br)c(O)c(Br)c2)c2ccccc21` has a logP [9] of 4.88.
Molecule `CC(C)OC(=O)CSc1ccccc1[N+](=O)[O-]` has a logP [18] of 2.76.
For `CC(=O)C=Cc1ccccc1`, the logP [7] was 2.13.
`CC(OCC=CCO)N1C=CNC1[N+](=O)[O-]` (centres undefined) gave a logD [21] of -0.28.
`CCOCCOCCOP(=O)(N1CC1)N1CC1` gave a logP [25] of 0.1.
Molecule `Cc1cn(C2CC(N=[N+]=[N-])C(COC(=O)C(=O)NC(Cc3ccccc3)C(=O)O)O2)c(=O)[nH]c1=O` (centres undefined) has a logP of 1.2.
`COC(=O)[C@H](Cc1ccccc1)NC(C)=O` showed a logD [16] of 0.92.
`Nc1ccn([C@@H]2C=C(CO)[C@@H](O)[C@H]2O)c(=O)n1` gave a logD [26] of -2.3.
Work on `OCCCCCc1ccccc1` yielded a logP [27] of 2.89.
`OCCCCCCc1ccccc1` gave a logP [27] of 3.29.
Work on `CCCCCCc1ccncc1` yielded a logP [22] of 4.35.
For `CCCOC(=O)C(C(=O)OCCC)=C1SC=CS1`, the logP [4] was 3.93.
`CC1(c2ccncc2)CCC(=O)NC1=O` (centres undefined) gave a logP [3] of 0.07.
Work on `CC(C)OC(=O)CS(=O)c1ccc(Cl)cc1[N+](=O)[O-]` (centres undefined) yielded a logP [18] of 2.22.
Work on `O=P(N1CCOCCOCCOCCOCC1)(N1CC1)N1CC1` yielded a logP [25] of 0.12.
`CCCCC(CO)n1cnc2c(N)ncnc21` (centres undefined) showed a logP [11] of 1.16.
Molecule `CCc1ccc2ccccc2c1` has a logP [20] of 4.38.
`CC(=O)OCN1Cc2ccccc2C1=O` gave a logP [15] of 0.99.
`Cc1cccc2ccccc12` showed a logP [20] of 3.87.
With `O=c1[nH]c(=O)n([C@H]2C[C@H](O)[C@@H](CO)O2)cc1I` the logD [2] was -0.95.
For `COCCc1ccc(OCC(O)CNC(C)C)cc1` (centres undefined), the logP [7] was 1.65.
`CCCCCCCCC1(c2ccncc2)CCC(=O)NC1=O` (centres undefined) gave a logP [3] of 4.04.
`CCCC(=O)OCOc1ccccc1C(N)=O` showed a logD [12] of 1.66.
`CCCCCNCc1ccc(C)cc1` showed a logP [19] of 4.26.
`O=C1C(c2[nH]c3ccc(S(=O)(=O)O)cc3c2O)=Nc2ccc(S(=O)(=O)O)cc21` gave a logP [17] of -2.
For `CCCCCn1cnc2c(N)ncnc21`, the logP [11] was 1.79.
In the case of `Cc1ccc2cc3ccccc3cc2c1`, the logD [24] is reported as 5.
`CC(C)(C)C(=O)OCOc1ccccc1C(N)=O` gave a logD [12] of 2.
`OCCCc1ccccc1` gave a logP [27] of 1.83.
In the case of `CCOCCOCCOP(=O)(N1CC1(C)C)N1CC1(C)C` (centres undefined), the logP [25] is reported as 0.22.
With `Nc1ncnc2c1ncn2C1C=C(CO)C(O)C1O` (centres undefined) the logD [26] was -1.3.
`CS(=O)CCCOc1ccc2ccccc2c1` (centres undefined) gave a logD [24] of 2.42.
`CCOP(=O)(Oc1ccc(C#N)cc1)c1ccccc1` (centres undefined) showed a logP [28] of 2.44.
Work on `Cc1cn([C@H]2C[C@H](O)[C@@H](CO)O2)c(=O)[nH]c1=O` yielded a logP of -1.04.
In the case of `CC(C)OC(=O)C(C(=O)OC(C)C)=C1SC=CS1`, the logP [4] is reported as 3.75.
Work on `CCCNCc1ccc(C)cc1` yielded a logP [19] of 2.96.
`N=C(Nc1ccccc1)Nc1ccccc1` showed a logP [9] of 2.85.
In the case of `Cn1c(Cl)c(Br)c(Br)c1-c1c(Br)c(Br)c(Br)n1C`, the logP [6] is reported as 6.6.
In the case of `Nc1nc(=O)n([C@H]2CC[C@@H](CO)O2)cc1F`, the logD [26] is reported as -1.05.
`COP(=O)(OC)Oc1ccc(C#N)cc1` showed a logP [28] of 0.84.

— the SangsterLogP compilation
